Reference: US20090036448A1, “PYRIMIDINE DERIVATIVES AND METHODS OF TREATMENT RELATED TO THE USE THEREOF” (TAISHO PHARMECUTICAL CO., LTD., priority 2004, published 2009)

The compounds below were run against MCH receptor (Homo sapiens, UniProt Q99705) (assay: Receptor binding assay with Radiolabelled MCH Ligand). Details: class by percent of control at 10^-7 M or IC50.
Parameters: expressed in transfected cells; host or cells: 293 cells (human kidney, ATCC), transient transfection; crude membranes
Method in brief: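 This was a filtration radioligand displacement assay: compounds, first tested at 1 and 0.1 μM and then over a range, inhibited binding of a labelled MCH ligand to transfected 293-cell membranes at room temperature for 60–120 min. Specific binding excluded a cold-MCH nonspecific signal. Ki was derived from IC50 via Cheng-Prusoff, using an independently measured KD.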

Sequence of MCH receptor (Q99705 whole entry): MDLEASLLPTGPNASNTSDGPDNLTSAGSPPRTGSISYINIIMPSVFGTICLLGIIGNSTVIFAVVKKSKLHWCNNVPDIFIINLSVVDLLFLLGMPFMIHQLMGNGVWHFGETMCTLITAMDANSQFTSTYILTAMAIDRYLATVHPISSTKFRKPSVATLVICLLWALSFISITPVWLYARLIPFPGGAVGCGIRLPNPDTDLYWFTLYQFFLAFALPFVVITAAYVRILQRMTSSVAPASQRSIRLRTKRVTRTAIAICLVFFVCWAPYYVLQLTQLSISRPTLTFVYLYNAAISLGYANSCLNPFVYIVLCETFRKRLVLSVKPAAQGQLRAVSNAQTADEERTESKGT

Question: For Cc1nc(N[C@H]2CC[C@@H](NC(=O)/C=C/c3ccccc3)CC2)cc(N(C)C)n1 [compound 210], which class is on record?
Answer: Its class is 3 (Class 3: The value of percent of control at 10^−7 M was more than 60% or the value of IC50 was more than 200 nM.).

Question: How did the class turn out when Cc1nc(N[C@H]2CC[C@@H](NCc3ccccc3I)CC2)cc(N(C)C)n1 [compound 375] was run?
Answer: Its class is 3 (Class 3: The value of percent of control at 10^−7 M was more than 60% or the value of IC50 was more than 200 nM.).

Question: With CCSC(C(=O)N[C@H]1CC[C@@H](Nc2cc(N(C)C)nc(C)n2)CC1)(c1ccccc1)c1ccccc1 [compound 306, N-(cis-4-{[6-(dimethylamino)-2-methylpyrimidin-4-yl]amino}cyclohexyl)-2-(ethylthio)-2,2-diphenylacetamide] as the compound, how does the class read?
Answer: The class was 1 (Class 1: The value of percent of control at 10^−7 M was less than 40% or the value of IC50 was less than 50 nM.).

Question: With Cc1ccc(-c2cc(C(=O)N[C@H]3CC[C@@H](Nc4cc(N(C)C)nc(C)n4)CC3)cs2)cc1 [compound 288] as the compound, how does the class read?
Answer: Its class is 3 (Class 3: The value of percent of control at 10^−7 M was more than 60% or the value of IC50 was more than 200 nM.).

Question: For Cc1nc(N[C@H]2CC[C@@H](NS(=O)(=O)c3cccc4c(N(C)C)cccc34)CC2)cc(N(C)C)n1 [compound 490], which class is on record?
Answer: Its class is 3 (Class 3: The value of percent of control at 10^−7 M was more than 60% or the value of IC50 was more than 200 nM.).

Question: Cc1nc(N[C@H]2CC[C@@H](NC(=O)c3ccc(-c4ccccc4)cc3)CC2)cc(N(C)C)n1 [compound 201] was tested. Which class did it give?
Answer: The class was 3 (Class 3: The value of percent of control at 10^−7 M was more than 60% or the value of IC50 was more than 200 nM.).

Question: Which class does the source give for Cc1nc(N[C@H]2CC[C@@H](NCc3ccc(SC(F)(F)F)cc3)CC2)cc(N(C)C)n1 [compound 405] here?
Answer: Its class is 3 (Class 3: The value of percent of control at 10^−7 M was more than 60% or the value of IC50 was more than 200 nM.).

Question: With COc1cc(NC(=O)N[C@H]2CC[C@@H](Nc3cc(N(C)C)nc(C)n3)CC2)cc(OC)c1OC [compound 425, N-(cis-4-{[6-(dimethylamino)-2-methylpyrimidin-4-yl]amino}cyclohexyl)-N′-(3,4,5-trimethoxyphenyl)urea] as the compound, how does the class read?
Answer: The class was 1 (Class 1: The value of percent of control at 10^−7 M was less than 40% or the value of IC50 was less than 50 nM.).

Question: Which class does the source give for Cc1nc(N[C@H]2CC[C@@H](NCC3C[C@H]3c3ccccc3)CC2)cc(N(C)C)n1 (some centres unmarked) [compound 383] here?
Answer: The class was 3 (Class 3: The value of percent of control at 10^−7 M was more than 60% or the value of IC50 was more than 200 nM.).

Question: For Cc1nc(N[C@H]2CC[C@@H](NC(=O)CC3=CCCCC3)CC2)cc(N(C)C)n1 [compound 278], which class is on record?
Answer: The class was 3 (Class 3: The value of percent of control at 10^−7 M was more than 60% or the value of IC50 was more than 200 nM.).

Question: With Cc1nc(N[C@H]2CC[C@@H](NCc3ccccc3)CC2)cc(N(C)C)n1 [compound 354] as the compound, how does the class read?
Answer: The class was 3 (Class 3: The value of percent of control at 10^−7 M was more than 60% or the value of IC50 was more than 200 nM.).

Question: How did the class turn out when CCOc1ccc(CN[C@H]2CC[C@@H](Nc3cc(N(C)C)nc(C)n3)CC2)cc1 [compound 371] was run?
Answer: The class was 3 (Class 3: The value of percent of control at 10^−7 M was more than 60% or the value of IC50 was more than 200 nM.).

Question: Cc1nc(N[C@H]2CC[C@@H](NC(=O)c3ccccc3C(=O)c3sc4ccccc4c3C)CC2)cc(N(C)C)n1 [compound 323] was tested. Which class did it give?
Answer: The class was 3 (Class 3: The value of percent of control at 10^−7 M was more than 60% or the value of IC50 was more than 200 nM.).

Question: Which class does the source give for Cc1nc(N[C@H]2CC[C@@H](NC(=O)Nc3cccc4ccccc34)CC2)cc(N(C)C)n1 [compound 432] here?
Answer: The class was 3 (Class 3: The value of percent of control at 10^−7 M was more than 60% or the value of IC50 was more than 200 nM.).

Question: Which class does the source give for Cc1nc(N[C@H]2CC[C@@H](NC(=O)Nc3c(Br)cc(C(C)C)cc3Br)CC2)cc(N(C)C)n1 [compound 423] here?
Answer: The class was 3 (Class 3: The value of percent of control at 10^−7 M was more than 60% or the value of IC50 was more than 200 nM.).

Question: With Cc1nc(N[C@H]2CC[C@@H](NC(=O)C(C)(C)Oc3ccc(Cl)cc3)CC2)cc(N(C)C)n1 [compound 268] as the compound, how does the class read?
Answer: The class was 3 (Class 3: The value of percent of control at 10^−7 M was more than 60% or the value of IC50 was more than 200 nM.).

Question: How did the class turn out when Cc1nc(N[C@H]2CC[C@@H](NCc3nn(-c4ccccc4)nc3C)CC2)cc(N(C)C)n1 [compound 376] was run?
Answer: Its class is 3 (Class 3: The value of percent of control at 10^−7 M was more than 60% or the value of IC50 was more than 200 nM.).

Question: How did the class turn out when Cc1nc(N[C@H]2CC[C@@H](NC(=O)NCc3ccccc3Cl)CC2)cc(N(C)C)n1 [compound 412] was run?
Answer: Its class is 3 (Class 3: The value of percent of control at 10^−7 M was more than 60% or the value of IC50 was more than 200 nM.).

Question: With Cc1nc(N[C@H]2CC[C@@H](NC(=O)NC(C)c3cccc4ccccc34)CC2)cc(N(C)C)n1 (relative stereo) [compound 415, N-(cis-4-{[6-(dimethylamino)-2-methylpyrimidin-4-yl]amino}cyclohexyl)-N′-[1-(1-naphthyl)ethyl]urea] as the compound, how does the class read?
Answer: Its class is 1 (Class 1: The value of percent of control at 10^−7 M was less than 40% or the value of IC50 was less than 50 nM.).

Question: With Cc1nc(N[C@H]2CC[C@@H](NS(=O)(=O)Cc3ccccc3[N+](=O)[O-])CC2)cc(N(C)C)n1 [compound 475] as the compound, how does the class read?
Answer: The class was 3 (Class 3: The value of percent of control at 10^−7 M was more than 60% or the value of IC50 was more than 200 nM.).

Question: For Cc1nc(N[C@H]2CC[C@@H](NC(=O)c3ccco3)CC2)cc(N(C)C)n1 [compound 222], which class is on record?
Answer: Its class is 3 (Class 3: The value of percent of control at 10^−7 M was more than 60% or the value of IC50 was more than 200 nM.).

Question: Which class does the source give for Cc1nc(N[C@H]2CC[C@@H](NC(=O)c3ccc4nonc4c3)CC2)cc(N(C)C)n1 [compound 207, N-(cis-4-{[6-(dimethylamino)-2-methylpyrimidin-4-y]amino}cyclohexyl)-2,1,3-benzoxadiazole-5-carboxamide] here?
Answer: Its class is 3 (Class 3: The value of percent of control at 10^−7 M was more than 60% or the value of IC50 was more than 200 nM.).

Question: Cc1nc(N[C@H]2CC[C@@H](NC(=O)OCC(C)(C)C)CC2)cc(N(C)C)n1 [compound 452] was tested. Which class did it give?
Answer: Its class is 3 (Class 3: The value of percent of control at 10^−7 M was more than 60% or the value of IC50 was more than 200 nM.).

Question: With Cc1nc(N[C@H]2CC[C@@H](NC(=S)Nc3ccc(C#N)cc3)CC2)cc(N(C)C)n1 [compound 450] as the compound, how does the class read?
Answer: The class was 3 (Class 3: The value of percent of control at 10^−7 M was more than 60% or the value of IC50 was more than 200 nM.).

Question: With CC(=O)c1ccc(OCC(=O)N[C@H]2CC[C@@H](Nc3cc(N(C)C)nc(C)n3)CC2)cc1 [compound 275] as the compound, how does the class read?
Answer: The class was 3 (Class 3: The value of percent of control at 10^−7 M was more than 60% or the value of IC50 was more than 200 nM.).

Question: Cc1nc(N[C@H]2CC[C@@H](NCc3c(-c4c(F)cccc4Cl)noc3C)CC2)cc(N(C)C)n1 [compound 366] was tested. Which class did it give?
Answer: Its class is 3 (Class 3: The value of percent of control at 10^−7 M was more than 60% or the value of IC50 was more than 200 nM.).

Question: For Cc1nc(N[C@H]2CC[C@@H](NC(=O)c3ccccc3C(=O)c3cc(C(F)(F)F)cc(C(F)(F)F)c3)CC2)cc(N(C)C)n1 [compound 322], which class is on record?
Answer: Its class is 3 (Class 3: The value of percent of control at 10^−7 M was more than 60% or the value of IC50 was more than 200 nM.).

Question: Cc1nc(N[C@H]2CC[C@@H](NC(=O)CC3CCCC3)CC2)cc(N(C)C)n1 [compound 257] was tested. Which class did it give?
Answer: Its class is 3 (Class 3: The value of percent of control at 10^−7 M was more than 60% or the value of IC50 was more than 200 nM.).

Question: Which class does the source give for Cc1nc(N[C@H]2CC[C@@H](NS(=O)(=O)c3cccc4cccnc34)CC2)cc(N(C)C)n1 [compound 522] here?
Answer: The class was 3 (Class 3: The value of percent of control at 10^−7 M was more than 60% or the value of IC50 was more than 200 nM.).

Question: With COc1ccc(CCN[C@H]2CC[C@@H](Nc3cc(N(C)C)nc(C)n3)CC2)cc1OC [compound 390] as the compound, how does the class read?
Answer: Its class is 3 (Class 3: The value of percent of control at 10^−7 M was more than 60% or the value of IC50 was more than 200 nM.).

Question: How did the class turn out when Cc1nc(N[C@H]2CC[C@@H](NC(=O)Nc3c(Br)cc(Br)cc3Br)CC2)cc(N(C)C)n1 [compound 429, N-(cis-4-{[6-(dimethylamino)-2-methylpyrimidin-4-yl]amino}cyclohexyl)-N′-(2,4,6-tribromophenyl)urea] was run?
Answer: The class was 1 (Class 1: The value of percent of control at 10^−7 M was less than 40% or the value of IC50 was less than 50 nM.).

Question: How did the class turn out when Cc1nc(N[C@H]2CC[C@@H](NC(=O)Nc3c(Cl)cc(Cl)cc3Cl)CC2)cc(N(C)C)n1 [compound 430] was run?
Answer: The class was 3 (Class 3: The value of percent of control at 10^−7 M was more than 60% or the value of IC50 was more than 200 nM.).

Question: Which class does the source give for Cc1nc(N[C@H]2CC[C@@H](NS(=O)(=O)c3ccc(Br)cc3OC(F)(F)F)CC2)cc(N(C)C)n1 [compound 501] here?
Answer: Its class is 3 (Class 3: The value of percent of control at 10^−7 M was more than 60% or the value of IC50 was more than 200 nM.).

Question: For Cc1nc(N[C@H]2CC[C@@H](NC(=O)c3ccccc3C(=O)N[C@@H](C)c3ccccc3)CC2)cc(N(C)C)n1 [compound 328], which class is on record?
Answer: Its class is 3 (Class 3: The value of percent of control at 10^−7 M was more than 60% or the value of IC50 was more than 200 nM.).

Question: For Cc1nc(N[C@H]2CC[C@@H](NC(=O)c3ccc(OC(F)(F)F)cc3)CC2)cc(N(C)C)n1 [compound 248], which class is on record?
Answer: The class was 3 (Class 3: The value of percent of control at 10^−7 M was more than 60% or the value of IC50 was more than 200 nM.).

Question: Cc1nc(N[C@H]2CC[C@@H](NS(=O)(=O)c3ccc(-c4ccccc4)cc3)CC2)cc(N(C)C)n1 [compound 489] was tested. Which class did it give?
Answer: Its class is 3 (Class 3: The value of percent of control at 10^−7 M was more than 60% or the value of IC50 was more than 200 nM.).

Question: Cc1nc(N[C@H]2CC[C@@H](NC(=O)Cc3sc(-c4ccccc4)nc3-c3ccc(Cl)cc3)CC2)cc(N(C)C)n1 [compound 335] was tested. Which class did it give?
Answer: The class was 3 (Class 3: The value of percent of control at 10^−7 M was more than 60% or the value of IC50 was more than 200 nM.).

Question: Cc1nc(N[C@H]2CC[C@@H](NC(=O)C3CC(=O)c4ccccc43)CC2)cc(N(C)C)n1 (relative stereo) [compound 299] was tested. Which class did it give?
Answer: The class was 3 (Class 3: The value of percent of control at 10^−7 M was more than 60% or the value of IC50 was more than 200 nM.).
